Results reported in ChEMBL document CHEMBL1127612, “Maleimidoethyl 3-(tri-n-butylstannyl)hippurate: a useful radioiodination reagent for protein radiopharmaceuticals to enhance target selective radioactivity localization” (J Med Chem, 1994).

Legend:
[1] = test system: Mus musculus; assay: Tested for biodistribution of radioactivity after 5 min of intravenous injection in mice blood; assay type: ADME, organism-based; settings: in vivo
[2] = test system: Mus musculus; assay: Tested for biodistribution of radioactivity after 3h of intravenous injection in mice neck; assay type: ADME, organism-based; settings: in vivo
[3] = test system: Mus musculus; assay: Tested for biodistribution of radioactivity after 1 hr of intravenous injection in mice stomach; assay type: ADME, organism-based; settings: in vivo
[4] = test system: Mus musculus; assay: Tested for biodistribution of radioactivity after 3h of intravenous injection in mice blood; assay type: ADME, organism-based; settings: in vivo
[5] = test system: Mus musculus; assay: Tested for biodistribution of radioactivity after 6 hr of intravenous injection in mice urine; assay type: ADME, organism-based; settings: in vivo
[6] = test system: Mus musculus; assay: Tested for biodistribution of radioactivity after 24 hr of intravenous injection in mice feces; assay type: ADME, organism-based; settings: in vivo
[7] = test system: Mus musculus; assay: Tested for biodistribution of radioactivity after 1 hr of intravenous injection in mice intestines; assay type: ADME, organism-based, Intestine; settings: in vivo
[8] = test system: Mus musculus; assay: Tested for biodistribution of radioactivity after 30 min of intravenous injection in mice liver; assay type: ADME, organism-based; settings: in vivo, 0.5 h
[9] = test system: Mus musculus; assay: Tested for biodistribution of radioactivity after 6 hr of intravenous injection in mice feces; assay type: ADME, organism-based; settings: in vivo
[10] = test system: Mus musculus; assay: Tested for biodistribution of radioactivity after 6 hr of intravenous injection in mice liver; assay type: ADME, organism-based; settings: in vivo
[11] = test system: Mus musculus; assay: Tested for biodistribution of radioactivity after 6 hr of intravenous injection in mice stomach; assay type: ADME, organism-based; settings: in vivo
[12] = test system: Mus musculus; assay: Tested for biodistribution of radioactivity after 1 hr of intravenous injection in mice blood; assay type: ADME, organism-based; settings: in vivo
[13] = test system: Mus musculus; assay: Tested for biodistribution of radioactivity after 5 min of intravenous injection in mice kidneys; assay type: ADME, organism-based; settings: in vivo
[14] = test system: Mus musculus; assay: Tested for biodistribution of radioactivity after 1 hr of intravenous injection in mice liver; assay type: ADME, organism-based; settings: in vivo
[15] = test system: Mus musculus; assay: Tested for biodistribution of radioactivity after 24 hr of intravenous injection in mice liver; assay type: ADME, organism-based; settings: in vivo
[16] = test system: Mus musculus; assay: Tested for biodistribution of radioactivity after 1 hr of intravenous injection in mice kidneys; assay type: ADME, organism-based, Kidney; settings: in vivo
[17] = test system: Mus musculus; assay: Tested for biodistribution of radioactivity after 30 min of intravenous injection in mice stomach; assay type: ADME, organism-based; settings: in vivo, 0.5 h
[18] = test system: Mus musculus; assay: Tested for biodistribution of radioactivity after 24 hr of intravenous injection in mice intestines; assay type: ADME, organism-based, Intestine; settings: in vivo
[19] = test system: Mus musculus; assay: Tested for biodistribution of radioactivity after 30 min of intravenous injection in mice neck; assay type: ADME, organism-based; settings: in vivo, 0.5 h
[20] = test system: Mus musculus; assay: Tested for biodistribution of radioactivity after 6 hr of intravenous injection in mice intestines; assay type: ADME, organism-based, Intestine; settings: in vivo
[21] = test system: Mus musculus; assay: Tested for biodistribution of radioactivity after 24 hr of intravenous injection in mice neck; assay type: ADME, organism-based; settings: in vivo
[22] = test system: Mus musculus; assay: Tested for biodistribution of radioactivity after 24 hr of intravenous injection in mice blood; assay type: ADME, organism-based; settings: in vivo
[23] = test system: Mus musculus; assay: Tested for biodistribution of radioactivity after 5 min of intravenous injection in mice liver; assay type: ADME, organism-based; settings: in vivo
[24] = test system: Mus musculus; assay: Tested for biodistribution of radioactivity after 5 min of intravenous injection in mice intestines; assay type: ADME, organism-based, Intestine; settings: in vivo
[25] = test system: Mus musculus; assay: Tested for biodistribution of radioactivity after 5 min of intravenous injection in mice neck; assay type: ADME, organism-based; settings: in vivo
[26] = test system: Mus musculus; assay: Tested for biodistribution of radioactivity after 24 hr of intravenous injection in mice stomach; assay type: ADME, organism-based; settings: in vivo
[27] = test system: Mus musculus; assay: Tested for biodistribution of radioactivity after 3h of intravenous injection in mice kidneys; assay type: ADME, organism-based, Kidney; settings: in vivo
[28] = test system: Mus musculus; assay: Tested for biodistribution of radioactivity after 24 hr of intravenous injection in mice urine; assay type: ADME, organism-based; settings: in vivo
[29] = test system: Mus musculus; assay: Tested for biodistribution of radioactivity after 30 min of intravenous injection in mice lintestines; assay type: ADME, organism-based, Intestine; settings: in vivo, 0.5 h
[30] = test system: Mus musculus; assay: Tested for biodistribution of radioactivity after 30 min of intravenous injection in mice blood; assay type: ADME, organism-based; settings: in vivo, 0.5 h
[31] = test system: Mus musculus; assay: Tested for biodistribution of radioactivity after 24 hr of intravenous injection in mice kidneys; assay type: ADME, organism-based, Kidney; settings: in vivo
[32] = test system: Mus musculus; assay: Tested for biodistribution of radioactivity after 1 hr of intravenous injection in mice neck; assay type: ADME, organism-based; settings: in vivo
[33] = test system: Mus musculus; assay: Tested for biodistribution of radioactivity after 3h of intravenous injection in mice stomach; assay type: ADME, organism-based; settings: in vivo
[34] = test system: Mus musculus; assay: Tested for biodistribution of radioactivity after 6 hr of intravenous injection in mice blood; assay type: ADME, organism-based; settings: in vivo
[35] = test system: Mus musculus; assay: Tested for biodistribution of radioactivity after 6 hr of intravenous injection in mice spleen; assay type: ADME, organism-based; settings: in vivo
[36] = test system: Mus musculus; assay: Tested for biodistribution of radioactivity after 3h of intravenous injection in mice spleen; assay type: ADME, organism-based; settings: in vivo
[37] = test system: Mus musculus; assay: Tested for biodistribution of radioactivity after 1 hr of intravenous injection in mice spleen; assay type: ADME, organism-based; settings: in vivo
[38] = test system: Mus musculus; assay: Tested for biodistribution of radioactivity after 6 hr of intravenous injection in mice kidneys; assay type: ADME, organism-based, Kidney; settings: in vivo
[39] = test system: Mus musculus; assay: Tested for biodistribution of radioactivity after 24 hr of intravenous injection in mice spleen; assay type: ADME, organism-based; settings: in vivo
[40] = test system: Mus musculus; assay: Tested for biodistribution of radioactivity after 5 min of intravenous injection in mice spleen; assay type: ADME, organism-based; settings: in vivo
[41] = test system: Mus musculus; assay: Tested for biodistribution of radioactivity after 6 hr of intravenous injection in mice neck; assay type: ADME, organism-based; settings: in vivo
[42] = test system: Mus musculus; assay: Tested for biodistribution of radioactivity after 3h of intravenous injection in mice intestines; assay type: ADME, organism-based, Intestine; settings: in vivo
[43] = test system: Mus musculus; assay: Tested for biodistribution of radioactivity after 30 min of intravenous injection in mice spleen; assay type: ADME, organism-based; settings: in vivo, 0.5 h
[44] = test system: Mus musculus; assay: Tested for biodistribution of radioactivity after 3h of intravenous injection in mice liver; assay type: ADME, organism-based; settings: in vivo
[45] = test system: Mus musculus; assay: Tested for biodistribution of radioactivity after 30 min of intravenous injection in mice kidneys; assay type: ADME, organism-based; settings: in vivo, 0.5 h
[46] = test system: Mus musculus; assay: Tested for biodistribution of radioactivity after 5 min of intravenous injection in mice stomach; assay type: ADME, organism-based; settings: in vivo

## CCc1ccc(O)c(I)c1
[1]
  Dose/g: 0.15%
[2]
  Dose/organ: 0.25%
[3]
  Dose/organ: 25.55%
[4]
  Dose/g: 1.4%
[5]
  Dose/organ: 26.84%
[6]
  Dose/organ: 3.22%
[7]
  Dose/organ: 6.73%
[8]
  Dose/organ: 18.72%
[9]
  Dose/organ: 0.31%
[10]
  Dose/organ: 1.13%
[11]
  Dose/organ: 13.22%
[12]
  Dose/g: 5.14%
[13]
  Dose/organ: 0.01%
[14]
  Dose/organ: 3.68%
[15]
  Dose/organ: 0.37%
[16]
  Dose/organ: 1.73%
[17]
  Dose/organ: 15.65%
[18]
  Dose/organ: 0.21%
[19]
  Dose/organ: 0.7%
[20]
  Dose/organ: 3.06%
[21]
  Dose/organ: 0.01%
[22]
  Dose/g: 0.12%
[23]
  Dose/organ: 92.49%
[24]
  Dose/organ: 0.16%
[25]
  Dose/organ: 0.04%
[26]
  Dose/organ: 0.11%
[27]
  Dose/organ: 0.83%
[28]
  Dose/organ: 79.66%
[29]
  Dose/organ: 8.28%
[30]
  Dose/g: 5.35%
[31]
  Dose/organ: 0.04%
[32]
  Dose/organ: 0.34%
[33]
  Dose/organ: 17.5%
[34]
  Dose/g: 1.59%
[35]
  Dose/organ: 0.06%
[36]
  Dose/organ: 0.1%
[37]
  Dose/organ: 0.23%
[38]
  Dose/organ: 0.57%
[39]
  Dose/organ: 0.02%
[40]
  Dose/organ: 0.06%
[41]
  Dose/organ: 0.21%
[42]
  Dose/organ: 3.43%
[43]
  Dose/organ: 0.3%
[44]
  Dose/organ: 1.44%
[45]
  Dose/organ: 2.07%
[46]
  Dose/organ: 0.25%
